In paper PMC11864979, “First-in-class ultralong-target-residence-time p38α inhibitors as a mitosis-targeted therapy for colorectal cancer” (Nature Cancer, 2025):
Read-outs that look alike come from different tables or passages of the source.

Columns and labels:
Experiment in all cases: selectivity profiling in a panel of 340 wild-type kinases (Reaction Biology Europe)
Assay type in all cases: binding
340 wild-type kinases [1] = target: T1, 340 wild-type kinases (Homo sapiens, UniProt P17252)
T1 construct: purchased Reaction Biology Europe

340 wild-type kinases [2] = target: T2, 340 wild-type kinases (Homo sapiens, UniProt Q99640)
T2 construct: purchased Reaction Biology Europe
T2 sequence (Q99640 1-499): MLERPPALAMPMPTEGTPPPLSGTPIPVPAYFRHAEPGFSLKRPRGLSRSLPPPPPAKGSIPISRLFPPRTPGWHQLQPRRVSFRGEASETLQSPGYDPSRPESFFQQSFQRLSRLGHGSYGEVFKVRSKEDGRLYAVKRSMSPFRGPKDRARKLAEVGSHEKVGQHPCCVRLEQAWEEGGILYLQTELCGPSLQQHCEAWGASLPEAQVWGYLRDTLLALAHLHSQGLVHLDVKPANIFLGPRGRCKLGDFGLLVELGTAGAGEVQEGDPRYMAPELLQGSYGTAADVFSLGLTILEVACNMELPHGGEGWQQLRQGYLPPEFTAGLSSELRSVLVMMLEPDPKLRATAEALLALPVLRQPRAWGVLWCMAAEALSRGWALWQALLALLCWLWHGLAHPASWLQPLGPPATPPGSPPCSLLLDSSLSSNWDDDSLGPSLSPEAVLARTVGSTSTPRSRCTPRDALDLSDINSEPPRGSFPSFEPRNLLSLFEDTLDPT

340 wild-type kinases [3] = target: T3, 340 wild-type kinases (Homo sapiens, UniProt P11362)
T3 construct: purchased Reaction Biology Europe

340 wild-type kinases [4] = target: T4, 340 wild-type kinases (Homo sapiens, UniProt Q9BWU1)
T4 construct: purchased Reaction Biology Europe

340 wild-type kinases [5] = target: T5, 340 wild-type kinases (Homo sapiens, UniProt P30530)
T5 construct: purchased Reaction Biology Europe
T5 sequence (P30530 26-894): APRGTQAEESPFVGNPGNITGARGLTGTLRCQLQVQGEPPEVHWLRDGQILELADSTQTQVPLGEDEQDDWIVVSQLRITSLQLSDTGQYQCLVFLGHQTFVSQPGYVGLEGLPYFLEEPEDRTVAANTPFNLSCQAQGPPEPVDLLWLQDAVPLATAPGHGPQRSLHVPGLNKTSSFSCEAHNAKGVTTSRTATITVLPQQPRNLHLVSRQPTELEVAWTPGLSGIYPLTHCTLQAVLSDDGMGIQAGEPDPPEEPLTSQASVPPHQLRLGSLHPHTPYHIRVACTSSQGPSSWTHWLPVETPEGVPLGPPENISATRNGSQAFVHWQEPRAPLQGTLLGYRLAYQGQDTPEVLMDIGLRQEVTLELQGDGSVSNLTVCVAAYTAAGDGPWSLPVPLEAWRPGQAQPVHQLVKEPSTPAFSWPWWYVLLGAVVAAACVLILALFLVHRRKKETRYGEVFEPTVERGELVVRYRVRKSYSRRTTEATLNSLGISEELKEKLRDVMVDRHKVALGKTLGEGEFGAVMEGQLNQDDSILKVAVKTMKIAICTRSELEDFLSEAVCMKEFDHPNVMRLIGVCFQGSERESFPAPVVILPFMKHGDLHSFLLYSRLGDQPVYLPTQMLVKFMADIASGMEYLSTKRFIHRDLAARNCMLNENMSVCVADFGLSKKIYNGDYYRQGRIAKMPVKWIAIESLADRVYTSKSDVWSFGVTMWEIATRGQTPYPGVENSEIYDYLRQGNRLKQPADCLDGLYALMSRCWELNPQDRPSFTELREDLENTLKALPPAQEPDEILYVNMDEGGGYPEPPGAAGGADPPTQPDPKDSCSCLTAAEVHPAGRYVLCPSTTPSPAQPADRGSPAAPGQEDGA

340 wild-type kinases [6] = target: T6, 340 wild-type kinases (Homo sapiens, UniProt P11309)
T6 construct: purchased Reaction Biology Europe

340 wild-type kinases [7] = target: T7, 340 wild-type kinases (Homo sapiens, UniProt P24941)
T7 construct: purchased Reaction Biology Europe

T4 sequence (Q9BWU1 whole entry): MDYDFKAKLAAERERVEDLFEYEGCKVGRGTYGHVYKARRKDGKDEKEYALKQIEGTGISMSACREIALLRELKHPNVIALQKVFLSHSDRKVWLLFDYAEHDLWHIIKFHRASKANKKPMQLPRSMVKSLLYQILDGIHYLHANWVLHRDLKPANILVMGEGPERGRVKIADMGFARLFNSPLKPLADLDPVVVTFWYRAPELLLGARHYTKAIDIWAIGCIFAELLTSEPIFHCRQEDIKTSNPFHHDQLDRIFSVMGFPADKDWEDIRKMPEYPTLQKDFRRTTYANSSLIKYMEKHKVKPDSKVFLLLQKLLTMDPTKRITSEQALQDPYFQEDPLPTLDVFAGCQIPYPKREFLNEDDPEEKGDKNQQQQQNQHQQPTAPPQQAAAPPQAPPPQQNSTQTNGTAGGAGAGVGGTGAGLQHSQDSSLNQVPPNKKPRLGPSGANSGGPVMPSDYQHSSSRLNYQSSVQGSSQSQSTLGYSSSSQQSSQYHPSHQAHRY
T3 sequence (P11362 22-822): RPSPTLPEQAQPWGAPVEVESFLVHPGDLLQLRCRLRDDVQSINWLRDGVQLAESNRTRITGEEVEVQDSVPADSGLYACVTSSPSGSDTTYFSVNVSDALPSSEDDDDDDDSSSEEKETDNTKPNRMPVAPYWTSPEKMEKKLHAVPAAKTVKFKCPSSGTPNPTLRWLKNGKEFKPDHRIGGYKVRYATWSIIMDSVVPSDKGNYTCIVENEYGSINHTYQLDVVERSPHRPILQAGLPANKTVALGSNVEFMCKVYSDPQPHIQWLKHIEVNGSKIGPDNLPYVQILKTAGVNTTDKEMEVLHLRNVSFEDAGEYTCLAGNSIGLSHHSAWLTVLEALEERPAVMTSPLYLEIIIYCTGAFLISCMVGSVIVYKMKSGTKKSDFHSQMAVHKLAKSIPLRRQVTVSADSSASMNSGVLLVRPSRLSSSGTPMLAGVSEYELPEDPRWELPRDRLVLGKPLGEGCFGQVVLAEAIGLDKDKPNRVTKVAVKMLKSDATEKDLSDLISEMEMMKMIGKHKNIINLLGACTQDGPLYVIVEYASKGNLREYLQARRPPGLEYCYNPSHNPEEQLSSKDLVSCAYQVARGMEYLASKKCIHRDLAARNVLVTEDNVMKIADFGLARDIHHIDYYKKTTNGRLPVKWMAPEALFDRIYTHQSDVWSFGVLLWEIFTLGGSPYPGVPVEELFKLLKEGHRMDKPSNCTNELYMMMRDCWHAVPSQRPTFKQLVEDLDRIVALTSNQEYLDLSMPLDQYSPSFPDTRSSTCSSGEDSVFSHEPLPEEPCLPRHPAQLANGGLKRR
T6 sequence (P11309 whole entry): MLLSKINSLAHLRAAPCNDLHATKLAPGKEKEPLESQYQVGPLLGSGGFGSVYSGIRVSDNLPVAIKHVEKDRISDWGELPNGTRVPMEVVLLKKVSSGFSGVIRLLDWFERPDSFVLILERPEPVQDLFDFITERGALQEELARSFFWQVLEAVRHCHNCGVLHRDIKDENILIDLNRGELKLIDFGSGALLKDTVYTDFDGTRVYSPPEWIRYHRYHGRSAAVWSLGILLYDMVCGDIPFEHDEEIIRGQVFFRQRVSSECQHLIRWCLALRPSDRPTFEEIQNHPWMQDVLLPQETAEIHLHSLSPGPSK

`CNC(=O)c1ccc2c(c1)C(=O)c1ccc(Nc3ccc(F)c(NC(=O)C4CC4)c3)cc1CC2` [Compound 2015] was tested. Which remaining activity at 0.2 µM (340 wild-type kinases [1]; 0.2 µM 2015, read-out: PKCalpha residual activity) did it give?
The remaining activity at 0.2 µM was 118%.

What about the remaining activity at 1 µM (340 wild-type kinases [1]; 1 µM 2015, read-out: PKCalpha residual activity) of the same compound?
Its remaining activity at 1 µM is 98.8%.

What about the remaining activity at 0.2 µM (340 wild-type kinases [1]; PKCalpha, 0.2 µM, read-out: residual activity) of the same compound?
Its remaining activity at 0.2 µM is 118%.

And the remaining activity at 1 µM (340 wild-type kinases [1]; PKCalpha, 1 µM, read-out: residual activity)?
Its remaining activity at 1 µM is 98.8%.

What about the remaining activity at 0.2 µM (340 wild-type kinases [2]; 0.2 µM 2015, read-out: PKMYT1 residual activity) of the same compound?
Its remaining activity at 0.2 µM is 98.1%.

And the remaining activity at 1 µM (340 wild-type kinases [2]; 1 µM 2015, read-out: PKMYT1 residual activity)?
Its remaining activity at 1 µM is 102%.

What about the remaining activity at 0.2 µM (340 wild-type kinases [2]; PKMYT1, 0.2 µM, read-out: residual activity) of the same compound?
Its remaining activity at 0.2 µM is 98%.

What about the remaining activity at 1 µM (340 wild-type kinases [2]; PKMYT1, 1 µM, read-out: residual activity) of the same compound?
Its remaining activity at 1 µM is 102%.

And the remaining activity at 0.2 µM (340 wild-type kinases [3]; 0.2 µM 2015, read-out: FGFR1 residual activity)?
Its remaining activity at 0.2 µM is 105%.

And the remaining activity at 1 µM (340 wild-type kinases [3]; 1 µM 2015, read-out: FGFR1 residual activity)?
The remaining activity at 1 µM was 111%.

What about the remaining activity at 0.2 µM (340 wild-type kinases [3]; FGFR1, 0.2 µM, read-out: residual activity) of the same compound?
Its remaining activity at 0.2 µM is 105%.

What about the remaining activity at 1 µM (340 wild-type kinases [3]; FGFR1, 1 µM, read-out: residual activity) of the same compound?
The remaining activity at 1 µM was 111%.

And the remaining activity at 0.2 µM (340 wild-type kinases [4]; 0.2 µM 2015, read-out: CDK19/CycC residual activity)?
The remaining activity at 0.2 µM was 99.8%.

And the remaining activity at 1 µM (340 wild-type kinases [4]; 1 µM 2015, read-out: CDK19/CycC residual activity)?
The remaining activity at 1 µM was 96.4%.

What about the remaining activity at 0.2 µM (340 wild-type kinases [4]; CDK19/CycC, 0.2 µM, read-out: residual activity) of the same compound?
Its remaining activity at 0.2 µM is 99.8%.

What about the remaining activity at 1 µM (340 wild-type kinases [4]; CDK19/CycC, 1 µM, read-out: residual activity) of the same compound?
Its remaining activity at 1 µM is 96.4%.

What about the remaining activity at 0.2 µM (340 wild-type kinases [5]; 0.2 µM 2015, read-out: AXL residual activity) of the same compound?
Its remaining activity at 0.2 µM is 106%.

What about the remaining activity at 1 µM (340 wild-type kinases [5]; 1 µM 2015, read-out: AXL residual activity) of the same compound?
The remaining activity at 1 µM was 92.6%.

And the remaining activity at 0.2 µM (340 wild-type kinases [5]; AXL, 0.2 µM, read-out: residual activity)?
Its remaining activity at 0.2 µM is 106%.

And the remaining activity at 1 µM (340 wild-type kinases [5]; AXL, 1 µM, read-out: residual activity)?
The remaining activity at 1 µM was 92.6%.

What about the remaining activity at 0.2 µM (340 wild-type kinases [6]; 0.2 µM 2015, read-out: PIM1 residual activity) of the same compound?
The remaining activity at 0.2 µM was 88.3%.

What about the remaining activity at 1 µM (340 wild-type kinases [6]; 1 µM 2015, read-out: PIM1 residual activity) of the same compound?
Its remaining activity at 1 µM is 91%.

What about the remaining activity at 0.2 µM (340 wild-type kinases [6]; PIM1, 0.2 µM, read-out: residual activity) of the same compound?
The remaining activity at 0.2 µM was 88.3%.

What about the remaining activity at 1 µM (340 wild-type kinases [6]; PIM1, 1 µM, read-out: residual activity) of the same compound?
The remaining activity at 1 µM was 91%.

What about the remaining activity at 0.2 µM (340 wild-type kinases [7]; 0.2 µM 2015, read-out: CDK2/CycA2 residual activity) of the same compound?
The remaining activity at 0.2 µM was 92.5%.

What about the remaining activity at 0.2 µM (340 wild-type kinases [7]; 0.2 µM 2015, read-out: CDK2/CycD1 residual activity) of the same compound?
Its remaining activity at 0.2 µM is 90.3%.

What about the remaining activity at 0.2 µM (340 wild-type kinases [7]; 0.2 µM 2015, read-out: CDK2/CycE1 residual activity) of the same compound?
Its remaining activity at 0.2 µM is 121%.

And the remaining activity at 1 µM (340 wild-type kinases [7]; 1 µM 2015, read-out: CDK2/CycA2 residual activity)?
The remaining activity at 1 µM was 87.2%.

What about the remaining activity at 1 µM (340 wild-type kinases [7]; 1 µM 2015, read-out: CDK2/CycD1 residual activity) of the same compound?
The remaining activity at 1 µM was 96.5%.

And the remaining activity at 1 µM (340 wild-type kinases [7]; 1 µM 2015, read-out: CDK2/CycE1 residual activity)?
The remaining activity at 1 µM was 109%.

What about the remaining activity at 0.2 µM (340 wild-type kinases [7]; CDK2/CycA2, 0.2 µM, read-out: residual activity) of the same compound?
The remaining activity at 0.2 µM was 92.5%.

What about the remaining activity at 1 µM (340 wild-type kinases [7]; CDK2/CycA2, 1 µM, read-out: residual activity) of the same compound?
The remaining activity at 1 µM was 87.2%.

And the remaining activity at 0.2 µM (340 wild-type kinases [7]; CDK2/CycD1, 0.2 µM, read-out: residual activity)?
The remaining activity at 0.2 µM was 90.3%.

What about the remaining activity at 1 µM (340 wild-type kinases [7]; CDK2/CycD1, 1 µM, read-out: residual activity) of the same compound?
Its remaining activity at 1 µM is 96.5%.

What about the remaining activity at 0.2 µM (340 wild-type kinases [7]; CDK2/CycE1, 0.2 µM, read-out: residual activity) of the same compound?
The remaining activity at 0.2 µM was 121%.

What about the remaining activity at 1 µM (340 wild-type kinases [7]; CDK2/CycE1, 1 µM, read-out: residual activity) of the same compound?
The remaining activity at 1 µM was 109%.
